Laboratory results from US20260026504A1, “COMPOUND […] STRUCTURE, APPLICATION, AND INSECTICIDE” (Anhui Shengfeng Biochemical Co., Ltd, priority 2022, published 2026).
Where two headings read alike, the source gives them in different places.

What was measured:
[1] = test system: rice leaf rollers (Cnaphalocrocis medinalis) fourth instar larvae; assay: Toxicity to rice leaf roller fourth instar larvae by the leaf-dipping method; format: in vivo; settings: for mortality at 5 ppm: Cnaphalocrocis medinalis, foliar, corrected mortality grade, 48 h, rice leaf dip
Experimental: The toxicity activity of part of the compounds on the fourth instar larvae of the rice leaf rollers (Cnaphalocrocis medinalis) is determined by the leafdipping method.
The test agents of the compounds in Table 2 were weighed out accurately with an electronic analytical balance, and the original drug was dissolved completely in dimethylsulfoxide to 10000 ppm solution and then diluted with 0.1% aqueous solution of Triton to 5 ppm solution. And (4) selecting rice plants which are planted in a laboratory and are not contacted with the liquid medicine, and cutting leaves of the rice plants to about 8 cm. Soaking the leaves in the prepared liquid medicine for 15 seconds, taking out and drying, wrapping the roots with absorbent cotton, and putting the wrapped roots into 9 cm culture dishes, wherein 3-5 rice leaves are placed in each culture dish. The water bamboo sections used as the feed for larvae are peeled off gently, and the four-instar larvae of the same standard are placed in culture dishes with 10 heads per dish and 4 repetitions per concentration for a total of 40 heads. After the inoculation, the culture dish is placed in a constant temperature culture room with the temperature of 26±1° C. and the illumination period of 16 (D): 8 (L) h, and the number of dead and live larvae is investigated after 48 h. A blank and a control of compound K1 and compound K2 were also provided.
The mortality was calculated according to the following formula 1, then the corrected mortality was calculated according to the following formula 2, and finally the rating criteria shown in table 2 were combined for ranking according to the corrected mortality value, and the specific results are shown in table 5.
(§1) mortality %=(number of dead insects/total number of insects)×100% Equation 1;
(§2) corrected mortality %=[(treatment-control mortality)/(1-control mortality)]×100% Equation 2.

[2] = test system: diamondback moth (Plutella xylostella) second instar larvae; assay: Toxicity to diamondback moth larvae by the leaf-dipping method; format: in vivo; settings: for mortality at 0.25 ppm / mortality at 1 ppm: Plutella xylostella, in Brassica oleracea, foliar, corrected mortality grade, cabbage leaf dip
Experimental: Determining the toxicity activity of part of compounds on diamondback moth (Plutella xylostella) instar larvae by the leafdipping method.
The test agents of the compounds in Table 2 were weighed out accurately with an electronic analytical balance, and the original drug was dissolved in a 10000 ppm solution with dimethyl sulfoxide as the solvent and then diluted with 0.1% of Triton solution to 1 ppm and 0.25 ppm solutions. Taking the cabbage not contacted with the liquid medicine, and cutting the leaves into 6 cm-diameter circular leaves. Soaking the leaves in the prepared liquid medicine for 15 seconds, taking out and drying, and placing the leaves into 6 cm culture dishes, wherein 1 cabbage leaf is placed in each culture dish. The same standard second instar larvae were placed in petri dishes with 10 heads per dish and 4 replicates per concentration for a total of 40 heads. After inoculation, the culture dish is placed in a constant-temperature culture chamber with the temperature of 25±1° C. and the illumination period of 16 (D) to 8 (L) h, and the number of dead and live larvae is investigated after 48 h and 72 h. A blank and a control of compound K1 and compound K2 were also provided.
The mortality is calculated according to the following formula 1, then the corrected mortality is calculated according to the formula 2, and finally the classification is carried out according to the corrected mortality value and the rating standard shown in the table 2, and the specific results are shown in the tables 3 and 4.
as §1, §2

[3] = 48 h, 48 h, read-out: mortality (1 ppm) 48 h
[4] = 72 h, 72 h, read-out: mortality (1 ppm) 72 h

| Structure (SMILES) | mortality at 1 ppm [2, 3] | mortality at 1 ppm [2, 4] | further results |
| --- | --- | --- | --- |
| Cc1cc(C2=NOC(c3cc(Cl)c(F)c(Cl)c3)(C(F)(F)F)C2)ccc1C(=O)Nc1cnn(C(C)C)c1 (stereo not drawn) [Compound 127] | 100% | 100% | mortality at 5 ppm [1]: 100%; lethality to Cnaphalocrocis medinalis ([1]; concentration of 5 ppm): 100%; mortality at 0.25 ppm ([2]; 48 h): 100%; lethality to Plutella xylostella ([2]; concentration of 0.25 ppm): 100% |
| Cc1cc(C2=NOC(c3cc(Cl)c(F)c(Cl)c3)(C(F)(F)F)C2)ccc1C(=O)Nc1cnn(S(=O)(=O)C(C)C)c1 (stereo not drawn) [Compound 154] | 80 to 90% | 100% | – |
| Cc1cc(C2=NOC(c3cc(Cl)cc(Cl)c3)(C(F)(F)F)C2)ccc1C(=O)Nc1c(C)nn(Cc2ccccc2)c1C (stereo not drawn) [Compound 104] | – | 50 to 70% | – |
| COC(Cn1cc(NC(=O)c2ccc(C3=NOC(c4cc(Cl)cc(Cl)c4)(C(F)(F)F)C3)cc2C)cn1)OC (stereo not drawn) [Compound 36] | – | 50 to 70% | – |
| Cc1cc(C2=NOC(c3cc(Cl)cc(Cl)c3)(C(F)(F)F)C2)ccc1C(=O)Nc1cnn(CC(F)(F)F)c1 (stereo not drawn) [Compound 7] | – | 80 to 90% | – |
| CCn1cc(NC(=O)c2ccc(C3=NOC(c4cc(Cl)cc(Cl)c4)(C(F)(F)F)C3)cc2C)cn1 (stereo not drawn) [Compound 3] | 70 to 80% | 90 to 100% | – |
| C=CCn1cc(NC(=O)c2ccc(C3=NOC(c4cc(Cl)cc(Cl)c4)(C(F)(F)F)C3)cc2C)cn1 (stereo not drawn) [Compound 27] | 50 to 70% | 70 to 80% | – |
| CCCC(=O)n1nc(C)c(NC(=O)c2ccc(C3=NOC(c4cc(Cl)c(F)c(Cl)c4)(C(F)(F)F)C3)cc2C)c1C (stereo not drawn) [Compound 170] | – | 80 to 90% | – |
| CCCn1nc(C)c(NC(=O)c2ccc(C3=NOC(c4cc(Cl)c(F)c(Cl)c4)(C(F)(F)F)C3)cc2C)c1C (stereo not drawn) [Compound 161] | – | 90 to 100% | – |
| Cc1cc(C2=NOC(c3cc(Cl)c(F)c(Cl)c3)(C(F)(F)F)C2)ccc1C(=O)Nc1cnn(C2CCC2)c1 (stereo not drawn) [Compound 130] | 90 to 100% | 100% | – |
| CCCS(=O)(=O)n1cc(NC(=O)c2ccc(C3=NOC(c4cc(Cl)cc(Cl)c4)(C(F)(F)F)C3)cc2C)cn1 (stereo not drawn) [Compound 71] | – | 70 to 80% | – |
| CCN(CC)C(=O)n1cc(NC(=O)c2ccc(C3=NOC(c4cc(Cl)cc(Cl)c4)(C(F)(F)F)C3)cc2C)cn1 (stereo not drawn) [Compound 68] | – | 50 to 70% | – |
| CCC(=O)n1nc(C)c(NC(=O)c2ccc(C3=NOC(c4cc(Cl)c(F)c(Cl)c4)(C(F)(F)F)C3)cc2C)c1C (stereo not drawn) [Compound 169] | – | 80 to 90% | – |
| Cc1cc(C2=NOC(c3cc(Cl)c(F)c(Cl)c3)(C(F)(F)F)C2)ccc1C(=O)Nc1c(C)nn(C(C)C)c1C (stereo not drawn) [Compound 162] | 50 to 70% | 100% | – |
| CCCn1nc(C)c(NC(=O)c2ccc(C3=NOC(c4cc(Cl)cc(Cl)c4)(C(F)(F)F)C3)cc2C)c1C (stereo not drawn) [Compound 98] | – | 50 to 70% | – |
| Cc1cc(C2=NOC(c3cc(Cl)cc(Cl)c3)(C(F)(F)F)C2)ccc1C(=O)Nc1cnn(C(=O)C2CCC2)c1 (stereo not drawn) [Compound 64] | – | 50 to 70% | – |
| Cc1cc(C2=NOC(c3cc(Cl)c(F)c(Cl)c3)(C(F)(F)F)C2)ccc1C(=O)Nc1cnn(C2CC2)c1 (stereo not drawn) [Compound 129] | 100% | 100% | – |
| Cc1cc(C2=NOC(c3cc(Cl)c(F)c(Cl)c3)(C(F)(F)F)C2)ccc1C(=O)Nc1c(C)nn(C)c1C (stereo not drawn) [Compound 160] | 50 to 70% | 70 to 80% | – |
| CC(=O)n1nc(C)c(NC(=O)c2ccc(C3=NOC(c4cc(Cl)c(F)c(Cl)c4)(C(F)(F)F)C3)cc2C)c1C (stereo not drawn) [Compound 168] | – | 90 to 100% | – |
| Cc1cc(C2=NOC(c3cc(Cl)c(F)c(Cl)c3)(C(F)(F)F)C2)ccc1C(=O)Nc1c(C)nn(C(=O)N(C)C)c1C (stereo not drawn) [Compound 177] | – | 80 to 90% | – |
| Cc1cc(C2=NOC(c3cc(Cl)cc(Cl)c3)(C(F)(F)F)C2)ccc1C(=O)Nc1ccn(C)n1 (stereo not drawn) [Compound K1, reference compound] | < 50% | < 50% | mortality at 5 ppm [1]: < 50%; mortality at 0.25 ppm ([2]; 48 h): < 50% |
